Assay results taken from ChEMBL document CHEMBL6096667, “Design, synthesis and biological evaluation of biaryl amide derivatives as modulators of multi-drug resistance” (Eur J Med Chem, 2025).

How the values were obtained:
[1] = biological target: T1, ATP-dependent translocase ABCB1 (Homo sapiens, UniProt P08183); assay: Inhibition of P-gp in human Paclitaxel-resistant A2780/T cells incubated for 48 hrs by Western blot analysis; type: cell-based; details: paclitaxel-resistant a2780/t cell, 10 µM
[2] = biological target: T1, ATP-dependent translocase ABCB1; assay: Inhibition of P-gp-mediated drug efflux of Rh123 in human Paclitaxel-resistant A2780/T cells at 2 uM measured upto 120 mins by flow cytometry; type: cell-based; details: paclitaxel-resistant a2780/t cell, 2 h
[3] = biological target: T2, Broad substrate specificity ATP-binding cassette transporter ABCG2 (Homo sapiens, UniProt Q9UNQ0); assay: Inhibition of ABCG2 in human Paclitaxel-resistant A2780/T cells at high concentration incubated for 48 hrs by Western blot analysis; type: cell-based; details: paclitaxel-resistant a2780/t cell
T2 sequence (Q9UNQ0 whole entry): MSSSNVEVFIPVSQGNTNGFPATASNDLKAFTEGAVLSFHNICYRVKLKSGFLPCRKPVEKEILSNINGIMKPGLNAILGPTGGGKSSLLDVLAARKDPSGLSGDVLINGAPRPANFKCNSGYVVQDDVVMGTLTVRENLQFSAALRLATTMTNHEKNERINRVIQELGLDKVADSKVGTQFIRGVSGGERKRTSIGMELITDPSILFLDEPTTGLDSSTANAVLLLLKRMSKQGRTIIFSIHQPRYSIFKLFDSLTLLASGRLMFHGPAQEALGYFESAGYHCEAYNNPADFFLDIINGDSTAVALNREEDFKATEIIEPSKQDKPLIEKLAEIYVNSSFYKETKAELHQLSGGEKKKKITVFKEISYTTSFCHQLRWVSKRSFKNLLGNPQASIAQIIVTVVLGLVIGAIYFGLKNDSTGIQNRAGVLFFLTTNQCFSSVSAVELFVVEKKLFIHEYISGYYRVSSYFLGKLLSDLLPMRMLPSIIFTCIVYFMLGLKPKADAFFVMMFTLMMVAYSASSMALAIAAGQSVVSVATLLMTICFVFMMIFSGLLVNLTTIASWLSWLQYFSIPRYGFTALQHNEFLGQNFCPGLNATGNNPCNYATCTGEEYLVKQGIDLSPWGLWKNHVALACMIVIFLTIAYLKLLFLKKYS

A2780/Taxol [4] = assay: Reversal of paclitaxel resistance in human Paclitaxel-resistant A2780/T cells by MTT assay; type: functional, cell-based
A2780/Taxol [5] = assay: Inhibition of cell proliferation of human Paclitaxel-resistant A2780/T cells at 10 uM incubated for 48 hrs in presence of PTX by MTT assay relative to control; type: functional
[6] = Reversal of paclitaxel resistance in human A2780/CDDP cells assessed as reversal fold by measuring ratio of paclitaxel IC50 to paclitaxel IC50 in presence of test compound by MTT assay; type: functional
A2780/Taxol [7] = assay: Inhibition of cell proliferation of human Paclitaxel-resistant A2780/T cells incubated for 48 hrs in presence of PTX by MTT assay; type: functional, cell-based
A2780/Taxol [8] = assay: Inhibition of cell proliferation of human Paclitaxel-resistant A2780/T cells at 1 uM incubated for 48 hrs in presence of PTX by MTT assay relative to control; type: functional
A2780/Taxol [9] = assay: Reversal of paclitaxel resistance in human Paclitaxel-resistant A2780/T cells assessed as reversal fold by measuring ratio of paclitaxel IC50 to paclitaxel IC50 in presence of test compound at 1 uM incubated for 48 hrs by MTT assay; type: functional
[10] = biological target: Multidrug resistance-associated protein 1 (Homo sapiens, UniProt P33527); assay: Inhibition of MRP1 in human Paclitaxel-resistant A2780/T cells at high concentration incubated for 48 hrs by Western blot analysis; type: cell-based; details: paclitaxel-resistant a2780/t cell
A2780/Taxol [11] = assay: Induction of intracellular Rh123 accumulation in human Paclitaxel-resistant A2780/T cells incubated for 4 hrs by flow cytometry; type: functional, cell-based; details: dose 0.5-2 µM
[12] = Reversal of paclitaxel resistance in human CDDP-resistant A549 cells assessed as reversal fold by measuring ratio of paclitaxel IC50 to paclitaxel IC50 in presence of test compound by MTT assay; type: functional, CDDP-resistant A549 cell
[13] = biological target: T1, ATP-dependent translocase ABCB1; assay: Binding affinity to CM5 sensor chip-immobilized human P-gp assessed as dissociation constant by SPR analysis

T1 sequence (P08183 whole entry): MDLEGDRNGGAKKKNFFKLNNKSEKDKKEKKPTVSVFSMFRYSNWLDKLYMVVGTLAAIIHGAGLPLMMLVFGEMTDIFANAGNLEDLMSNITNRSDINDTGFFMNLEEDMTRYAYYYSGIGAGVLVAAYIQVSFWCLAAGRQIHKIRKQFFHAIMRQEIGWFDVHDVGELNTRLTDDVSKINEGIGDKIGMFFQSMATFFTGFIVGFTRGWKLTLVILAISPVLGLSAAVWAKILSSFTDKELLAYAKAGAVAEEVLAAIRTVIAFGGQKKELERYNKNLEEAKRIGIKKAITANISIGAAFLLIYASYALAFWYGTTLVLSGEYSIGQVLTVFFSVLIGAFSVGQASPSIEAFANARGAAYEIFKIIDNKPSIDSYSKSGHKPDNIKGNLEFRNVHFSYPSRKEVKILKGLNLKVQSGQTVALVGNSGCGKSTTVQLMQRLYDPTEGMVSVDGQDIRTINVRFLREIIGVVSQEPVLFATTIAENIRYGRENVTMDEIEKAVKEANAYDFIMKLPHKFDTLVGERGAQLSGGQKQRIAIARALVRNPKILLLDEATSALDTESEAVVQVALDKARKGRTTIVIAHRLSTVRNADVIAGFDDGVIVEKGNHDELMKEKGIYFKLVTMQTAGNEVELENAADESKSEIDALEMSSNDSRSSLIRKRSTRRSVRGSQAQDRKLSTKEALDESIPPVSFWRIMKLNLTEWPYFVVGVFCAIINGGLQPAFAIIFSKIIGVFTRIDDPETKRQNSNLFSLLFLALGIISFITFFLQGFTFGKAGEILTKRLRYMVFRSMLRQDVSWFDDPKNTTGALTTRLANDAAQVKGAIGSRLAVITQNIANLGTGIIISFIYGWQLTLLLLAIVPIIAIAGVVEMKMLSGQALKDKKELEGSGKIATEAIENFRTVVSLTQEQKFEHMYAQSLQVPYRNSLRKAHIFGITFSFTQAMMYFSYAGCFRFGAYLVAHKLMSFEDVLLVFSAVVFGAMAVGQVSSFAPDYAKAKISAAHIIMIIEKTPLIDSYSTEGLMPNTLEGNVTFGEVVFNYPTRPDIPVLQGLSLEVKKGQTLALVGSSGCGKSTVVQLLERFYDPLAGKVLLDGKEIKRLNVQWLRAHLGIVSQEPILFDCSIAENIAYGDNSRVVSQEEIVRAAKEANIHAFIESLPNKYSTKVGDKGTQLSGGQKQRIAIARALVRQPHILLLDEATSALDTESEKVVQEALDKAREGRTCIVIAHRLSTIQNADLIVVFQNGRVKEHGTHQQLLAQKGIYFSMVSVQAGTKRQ
Sequence of Multidrug resistance-associated protein 1 (P33527 whole entry): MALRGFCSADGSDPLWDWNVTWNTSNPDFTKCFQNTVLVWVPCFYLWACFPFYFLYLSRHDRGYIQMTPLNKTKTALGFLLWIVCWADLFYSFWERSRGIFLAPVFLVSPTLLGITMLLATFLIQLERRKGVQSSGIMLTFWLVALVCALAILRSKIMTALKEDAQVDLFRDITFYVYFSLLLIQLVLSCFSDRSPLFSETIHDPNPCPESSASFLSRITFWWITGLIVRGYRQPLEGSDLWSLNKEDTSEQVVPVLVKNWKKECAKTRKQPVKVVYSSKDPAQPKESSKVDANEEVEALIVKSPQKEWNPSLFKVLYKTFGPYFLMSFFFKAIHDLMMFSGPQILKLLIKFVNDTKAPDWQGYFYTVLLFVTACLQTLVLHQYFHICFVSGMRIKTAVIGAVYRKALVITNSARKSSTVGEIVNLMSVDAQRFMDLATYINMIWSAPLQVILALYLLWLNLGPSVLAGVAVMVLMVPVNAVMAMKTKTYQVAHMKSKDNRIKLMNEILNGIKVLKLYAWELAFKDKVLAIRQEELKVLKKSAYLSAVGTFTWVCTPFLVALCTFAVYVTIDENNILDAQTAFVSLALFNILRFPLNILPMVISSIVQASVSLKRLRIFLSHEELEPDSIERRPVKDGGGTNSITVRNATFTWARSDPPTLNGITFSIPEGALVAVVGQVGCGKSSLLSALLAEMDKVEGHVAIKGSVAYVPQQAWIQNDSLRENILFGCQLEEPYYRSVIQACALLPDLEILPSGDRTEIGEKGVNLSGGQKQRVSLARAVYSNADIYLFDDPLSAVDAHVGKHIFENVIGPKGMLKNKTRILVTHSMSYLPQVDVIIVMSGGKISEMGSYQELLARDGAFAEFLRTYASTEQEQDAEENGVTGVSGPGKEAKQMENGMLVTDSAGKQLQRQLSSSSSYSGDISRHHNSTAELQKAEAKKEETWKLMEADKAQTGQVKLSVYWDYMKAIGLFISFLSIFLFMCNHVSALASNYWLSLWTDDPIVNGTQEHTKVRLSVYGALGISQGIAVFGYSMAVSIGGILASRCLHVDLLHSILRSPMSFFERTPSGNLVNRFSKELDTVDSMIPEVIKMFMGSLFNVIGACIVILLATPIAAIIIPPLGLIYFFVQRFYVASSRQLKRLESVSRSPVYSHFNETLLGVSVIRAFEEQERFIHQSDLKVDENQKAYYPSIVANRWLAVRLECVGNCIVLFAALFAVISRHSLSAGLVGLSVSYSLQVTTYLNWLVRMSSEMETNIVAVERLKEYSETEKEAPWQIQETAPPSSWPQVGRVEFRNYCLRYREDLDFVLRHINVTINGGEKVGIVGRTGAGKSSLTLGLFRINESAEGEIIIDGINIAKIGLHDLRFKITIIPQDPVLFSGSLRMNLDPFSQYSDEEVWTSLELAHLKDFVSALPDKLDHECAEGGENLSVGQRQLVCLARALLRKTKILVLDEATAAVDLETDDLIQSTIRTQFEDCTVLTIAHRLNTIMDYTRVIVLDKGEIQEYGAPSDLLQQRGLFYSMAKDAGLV

inhibition (INH) [1]: Dose-dependent-effect | inhibition (INH) [2]: Active | inhibition (INH) [3]: Not_active | EC50 (A2780/Taxol [4]): 88 nM | IC50 (A2780/Taxol [7]): > 50000 nM | inhibition (INH) [10]: Active | Kd [13]: 798 nM
Structure (SMILES): COc1cc(-c2ccc(CNC(=O)c3cn(C)c4ccccc34)nc2)cc(OC)c1OC
inhibition at 10 µM (A2780/Taxol [5]): 88% | Ratio IC50 [6]: 11 | inhibition at 1 µM (A2780/Taxol [8]): 55% | Ratio IC50 (A2780/Taxol [9]): 156 | Activity (A2780/Taxol [11]): Dose-dependent-effect; Activity Was Observed Superior To Vrp | Ratio IC50 [12]: 7
